Data from EP0319030A1, “Aminopropanol derivatives of 1,4:3,6-dianhydro-hexitol nitrates, processes for their preparation and their use as medicaments” (Heinrich Mack Nachf., priority 1987, dated 1989).
Marks after values point to notes of the source that are not given here.

How the values were obtained:
Format in all cases: in vivo
Mice = assay: Peroral tolerance in mice
From the text: Set forth below is data obtained on the compounds of Examples 17, 19 and 20 that illustrates the pharmacological action of the compounds of the present invention.

conscious beagle dogs = assay: Systolic blood pressure and heart rate following peroral administration; details: 5.0 mg/kg peroral, mean ± SEM
From the text: (§1) In particular, they have a pronounced cardiovascular action. On isolated strips of veins from dogs, they act against the K⁺-induced contraction in a lower concentration than on aorta strips. On isolated hearts from guinea pigs, they increase coronary flow as a function of the dose. On anesthetized rats, they prevent lypressin coronary spasm as a function of the dose and significiantly increase the survival rate of rats following acute cardiac infarction. On normotensive conscious dogs, they lower the systolic blood pressure for a period of 6-8 hours after oral administration. On artifically respirated anesthetized, thoraxotomized dogs, they reduce the mean arterial pressure, the left ventricular systolic pressure, the left ventricular end diastolic pressure and the pressure in the Arteria pulmonalis and reduce the peripheral vascular resistance. In contrast to the known organic nitrate esters, they also lead to a long-lasting reduction in the systolic blood pressure of spontaneously hypertensive rats. Such an action profile is not known for any of the substances of similar structure which have already been described.

anesthetized dogs = assay: Cardiovascular actions following intra-venous administration, opened thorax and artificial respiration; details: opened thorax, artificial respiration
From the text: as §1

rats = assay: Survival rate after acute coronary ligature, method of I. Lepran et al.; details: 100.0 mg/kg orally 5 minutes before ligature; for Number of rats surviving after an acute coronary ligature, 24 hours / Number of rats surviving after an acute coronary ligature, 7 days: control 21/80; for Number of rats surviving after an acute coronary ligature, 60 minutes: control 23/80
From the text: as §1

anesthetized rat = assay: Lypressin-induced T-wave increase in the ECG (lypressin coronary spasm), method of M. Leitold et al.; details: for ED50: Rattus norvegicus, po, 0.5 h, perorally 30 minutes before the lypressin injection, dose column in mg/kg; for Duration of action at the ED50 dose: perorally at various times before the lypressin injection
From the text: as §1

## COc1ccccc1N1CCN(CC(O)CO[C@H]2CO[C@H]3[C@@H]2OC[C@@H]3O[N+](=O)[O-])CC1 (stereo partly shown) [Example 20, 5-O-<3-[4-(2-Methoxyphenyl)-piprazinyl]-2-hydroxypropyl>-isoidide-2-nitrate]
Mice; mouse, in vivo
  tolerance (clinical symptoms, fatal consequences): without clinical symptoms and without fatal consequences
Conscious beagle dogs
  HR (heart rate), Action of substance after 1 hours: 98 ± 7 Bts/M
  HR (heart rate), Action of substance after 2 hours: 109 ± 10 Bts/M
  HR (heart rate), Action of substance after 4 hours: 82 ± 7 Bts/M
  HR (heart rate), Action of substance after 6 hours: 78 ± 6 Bts/M
  HR (heart rate), Action of substance after 8 hours: 77 ± 6 Bts/M
  SBP (systolic blood pressure), Action of substance after 1 hours: 97 ± 8 mmHg
  SBP (systolic blood pressure), Action of substance after 2 hours: 95 ± 6 mmHg
  SBP (systolic blood pressure), Action of substance after 4 hours: 106 ± 4 mmHg
  SBP (systolic blood pressure), Action of substance after 6 hours: 113 ± 4 mmHg
  SBP (systolic blood pressure), Action of substance after 8 hours: 121 ± 3 mmHg
Anesthetized dogs; 30 µg/kg intra-venous
  CO, Action of substance: 0.81 ± 0.3 l/M
  CO, Change: 0.38 ± 0.1 l/M
  CO, Duration of action: 12 ± 6 min
  HR (heart rate), Action of substance: 192 ± 10 Bts/M
  HR (heart rate), Change: 2 ± 2 Bts/M
  HR (heart rate), Duration of action: 11 ± 4 min
  LVEDP (left ventricular enddiastolic pressure), Action of substance: 7.5 ± 1.2 mmHg
  LVEDP (left ventricular enddiastolic pressure), Change: 0.1 ± 0.2 mmHg
  LVEDP (left ventricular enddiastolic pressure), Duration of action: 9 ± 7 min
  LVSP (left ventricular systolic blood pressure), Action of substance: 116 ± 10 mmHg
  LVSP (left ventricular systolic blood pressure), Change: 22 ± 4 mmHg
  LVSP (left ventricular systolic blood pressure), Duration of action: 8 ± 3 min
  MAP (mean arterial blood pressure), Action of substance: 66 ± 3 mmHg
  MAP (mean arterial blood pressure), Change: 25 ± 5 mmHg
  MAP (mean arterial blood pressure), Duration of action: 15 ± 2 min
  PAP, Action of substance: 16.0 ± 1 mmHg
  PAP, Change: 0.4 ± 0.2 mmHg
  PAP, Duration of action: 11 ± 6 min
  SV, Action of substance: 7.5 ± 2 mL/s
  SV, Change: 2.3 ± 1 mL/s
  SV, Duration of action: 12 ± 6 min
  TPR (total peripheral vascular resistance), Action of substance: 63 ± 13 mmHg/ml
  TPR (total peripheral vascular resistance), Change: 2 ± 13 mmHg/ml
  TPR (total peripheral vascular resistance), Duration of action: 4 ± 2 min
  dp/dtmax (maximum rate of increase in the left ventricular pressure), Action of substance: 2321 ± 363 mmHg/s
  dp/dtmax (maximum rate of increase in the left ventricular pressure), Change: 758 ± 269 mmHg/s
  dp/dtmax (maximum rate of increase in the left ventricular pressure), Duration of action: 15 ± 4 min
Anesthetized dogs; 300 µg/kg intra-venous
  CO, Action of substance: 1.32 ± 0.7 l/M
  CO, Change: 0.21 ± 0.6 l/M
  CO, Duration of action: 35 ± 23 min
  HR (heart rate), Action of substance: 197 ± 12 Bts/M
  LVEDP (left ventricular enddiastolic pressure), Action of substance: 6.8 ± 1 mmHg
  LVEDP (left ventricular enddiastolic pressure), Change: 1.1 ± 1 mmHg
  LVEDP (left ventricular enddiastolic pressure), Duration of action: 18 ± 13 min
  LVSP (left ventricular systolic blood pressure), Action of substance: 111 ± 11 mmHg
  LVSP (left ventricular systolic blood pressure), Change: 34 ± 5 mmHg
  LVSP (left ventricular systolic blood pressure), Duration of action: 34 ± 12 min
  MAP (mean arterial blood pressure), Action of substance: 58 ± 2 mmHg
  MAP (mean arterial blood pressure), Change: 39 ± 3 mmHg
  MAP (mean arterial blood pressure), Duration of action: 35 ± 15 min
  PAP, Action of substance: 15.7 ± 1 mmHg
  PAP, Change: 0.7 ± 0.3 mmHg
  PAP, Duration of action: 14 ± 13 min
  SV, Action of substance: 7.2 ± 2.5 mL/s
  SV, Change: 0.5 ± 2.9 mL/s
  SV, Duration of action: 33 ± 23 min
  TPR (total peripheral vascular resistance), Action of substance: 35 ± 6 mmHg/ml
  TPR (total peripheral vascular resistance), Change: 39 ± 9 mmHg/ml
  TPR (total peripheral vascular resistance), Duration of action: 6 ± 2 min
  dp/dtmax (maximum rate of increase in the left ventricular pressure), Action of substance: 2056 ± 385 mmHg/s
  dp/dtmax (maximum rate of increase in the left ventricular pressure), Change: 1053 ± 333 mmHg/s
  dp/dtmax (maximum rate of increase in the left ventricular pressure), Duration of action: 36 ± 11 min
Anesthetized dogs; 3000 µg/kg intra-venous
  CO, Action of substance: 2.02 ± 0.8 l/M
  CO, Change: 0.87 ± 0.7 l/M
  CO, Duration of action: 3 ± 0.4 min
  HR (heart rate), Action of substance: 169 ± 34 Bts/M
  HR (heart rate), Change: 30 ± 15 Bts/M
  HR (heart rate), Duration of action: 80 ± 44 min
  LVEDP (left ventricular enddiastolic pressure), Action of substance: 2.7 ± 3.8 mmHg
  LVEDP (left ventricular enddiastolic pressure), Change: 2.3 ± 1.7 mmHg
  LVEDP (left ventricular enddiastolic pressure), Duration of action: 104 ± 51 min
  LVSP (left ventricular systolic blood pressure), Action of substance: 98 ± 21 mmHg
  LVSP (left ventricular systolic blood pressure), Change: 55 ± 15 mmHg
  LVSP (left ventricular systolic blood pressure), Duration of action: 128 ± 12 min
  MAP (mean arterial blood pressure), Action of substance: 56 ± 2 mmHg
  MAP (mean arterial blood pressure), Change: 45 ± 5 mmHg
  MAP (mean arterial blood pressure), Duration of action: 118 ± 20 min
  PAP, Action of substance: 14.6 ± 1 mmHg
  PAP, Change: 1.1 ± 0.3 mmHg
  PAP, Duration of action: > 177 min
  SV, Action of substance: 10.6 ± 3.3 mL/s
  SV, Change: 50 ± 0.7 mL/s
  SV, Duration of action: 4 ± 0.0 min
  TPR (total peripheral vascular resistance), Action of substance: 24 ± 7 mmHg/ml
  TPR (total peripheral vascular resistance), Change: 56 ± 7 mmHg/ml
  TPR (total peripheral vascular resistance), Duration of action: 27 ± 21 min
  dp/dtmax (maximum rate of increase in the left ventricular pressure), Action of substance: 1977 ± 537 mmHg/s
  dp/dtmax (maximum rate of increase in the left ventricular pressure), Change: 1395 ± 263 mmHg/s
  dp/dtmax (maximum rate of increase in the left ventricular pressure), Duration of action: > 148 min
rats
  Number of rats surviving after an acute coronary ligature, 24 hours: 14/20*
  Number of rats surviving after an acute coronary ligature, 7 days: 14/20*
  Number of rats surviving after an acute coronary ligature, 60 minutes: 14/20*
Anesthetized rat
  ED50: 73.8 mg/kg
  Duration of action at the ED50 dose: 4 h

## COc1ccccc1N1CCN(CC(O)CO[C@@H]2CO[C@H]3[C@@H]2OC[C@H]3O[N+](=O)[O-])CC1 (stereo partly shown) [Example 19, 5-O-<3-[4-(2-Methoxyphenyl)-piperzinyl]-2-hydroxypropyl>-isomannide-2-nitrate]
Mice; 500 mg/kg perorally, mice
  tolerance (clinical symptoms, fatal consequences): without clinical symptoms and without fatal consequences
Conscious beagle dogs
  HR (heart rate), Action of substance after 1 hours: 101 ± 5 Bts/M
  HR (heart rate), Action of substance after 2 hours: 90 ± 5 Bts/M
  HR (heart rate), Action of substance after 4 hours: 85 ± 5 Bts/M
  HR (heart rate), Action of substance after 6 hours: 86 ± 5 Bts/M
  SBP (systolic blood pressure), Action of substance after 1 hours: 105 ± 8 mmHg
  SBP (systolic blood pressure), Action of substance after 2 hours: 105 ± 5 mmHg
  SBP (systolic blood pressure), Action of substance after 4 hours: 118 ± 6 mmHg
  SBP (systolic blood pressure), Action of substance after 6 hours: 126 ± 6 mmHg
rats
  Number of rats surviving after an acute coronary ligature, 24 hours: 15/20*
  Number of rats surviving after an acute coronary ligature, 7 days: 15/20*
  Number of rats surviving after an acute coronary ligature, 60 minutes: 15/20*
Anesthetized rat
  ED50: 46.7 mg/kg
  Duration of action at the ED50 dose: 4 h
